Where two headings read alike, the source gives them in different places.
Legend:
streptavidin = streptavidin (Streptomyces avidinii, UniProt P22629); details: affinity of streptavidin for biotin; cited from earlier work
[1] = test system: CHO cells, permeabilized by treatment with lysolecithin; experiment: Polymerase substrate function in permeabilized cells
Streptavidin-Sepharose = Streptavidin-Sepharose (Streptomyces avidinii, UniProt P22629)
From the text: Its preparation and purification is described in Hoffman, et al., Proc. Natl. Acad. Sci., 77, 4666 (1980).

avidin = avidin (Gallus gallus, UniProt P02701); details: cited from earlier work
avidin, sequence (P02701 25-152): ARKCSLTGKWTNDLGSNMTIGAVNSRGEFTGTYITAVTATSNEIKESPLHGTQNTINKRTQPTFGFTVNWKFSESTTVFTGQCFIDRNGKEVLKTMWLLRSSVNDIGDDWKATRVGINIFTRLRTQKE

Streptavidin-Sepharose, sequence (P22629 25-183): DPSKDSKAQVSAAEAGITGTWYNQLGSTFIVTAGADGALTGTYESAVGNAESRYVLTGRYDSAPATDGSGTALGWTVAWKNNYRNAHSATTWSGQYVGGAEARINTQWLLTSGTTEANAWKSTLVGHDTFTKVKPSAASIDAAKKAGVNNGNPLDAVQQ
streptavidin, sequence (P22629 25-183): as above

O=C(O)CCCC[C@@H]1SC[C@@H]2NC(=O)N[C@@H]21 [biotin]
Kassn (streptavidin): 10^15

O=C(CCCCC1SCC2NC(=O)NC21)NC/C=C/c1cn(C2CC(O)C(COP(=O)(O)OP(=O)(O)OP(=O)(O)O)O2)c(=O)[nH]c1=O (stereo not shown) [Bio-dUTP, biotinyl-dUTP]
polymerase substrate function [1]: function as a polymerase substrate

Iminobiotinyl-dUTP [^3H-IB-dUTP]
% Retained on SA-Sepharose (Streptavidin-Sepharose; Load - 10 mM Tris-HCl, 8.3, 50 mM NaCl): 100% | % Retained on SA-Sepharose (Streptavidin-Sepharose; eluent (1) 0.1 M NaCl): 100% | % Retained on SA-Sepharose (Streptavidin-Sepharose; eluent (2) 1.0 M NaCl): 100% | % Retained on SA-Sepharose (Streptavidin-Sepharose; eluent (3) 8 M Urea): 97.5% | % Retained on SA-Sepharose (Streptavidin-Sepharose; eluent (4) 6 M guanidine-HCl): 97.0% | % Retained on SA-Sepharose (Streptavidin-Sepharose; eluent (5) 50 mM NH4-acetate, pH 4.0): <0.01% | % Retained on SA-Sepharose (Streptavidin-Sepharose; eluent (6) 50 mM NH4-acetate, pH 4.0 2 mM biotin): <0.01%

N=C1N[C@H]2[C@H](CS[C@H]2CCCCC(=O)O)N1 [iminobiotin]
binding to avidin relative to biotin (avidin): less tightly than biotin

Source: patent EP0329198B1, “Base modified oligo- and polynucleotides and methods of preparing and using same” (priority 1981, dated 1982)
